Reference: PubChem BioAssay AID248 (DTP/NCI, 2004)
Several values for one entry are separate records, joined by “and”; a condition that tells them apart may be missing. Equal entries are not always repeated. Inconclusive results and toxic doses are left out. Rule as the data show it: active = T/C of 150% or more; inactive = T/C below 125%.

Tested on: L1210 leukemia ip in BDF1 mice, survival T/C
Test: NCI In Vivo Anticancer Drug Screen. Data for tumor model L1210 Leukemia (intraperitoneal) in B6D2F1 (BDF1) mice
Conditions: endpoint: mean survival time, higher = longer survival
Summary of the method: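 Antitumor effect is assessed in tumor-bearing animals. Survival in the compound arm is compared with a vehicle-dosed control arm and expressed as their quotient.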

[1] = dose: 100.0 mg/kg/injection, schedule: Q01DX009 (ip), vehicle: carboxymethylcellulose (CMC)
[2] = dose: 200.0 mg/kg/injection, schedule: Q01DX009 (ip), vehicle: carboxymethylcellulose (CMC)
[3] = dose: 50.0 mg/kg/injection, schedule: Q01DX009 (ip), vehicle: saline
[4] = dose: 100.0 mg/kg/injection, schedule: Q01DX001 (ip), vehicle: saline
[5] = dose: 100.0 mg/kg/injection, schedule: Q01DX009 (ip), vehicle: saline
[6] = dose: 100.0 mg/kg/injection, schedule: Q04DX003 (ip), vehicle: saline
[7] = dose: 200.0 mg/kg/injection, schedule: Q01DX001 (ip), vehicle: saline
[8] = dose: 200.0 mg/kg/injection, schedule: Q04DX003 (ip), vehicle: saline
[9] = dose: 400.0 mg/kg/injection, schedule: Q01DX001 (ip), vehicle: saline
[10] = dose: 400.0 mg/kg/injection, schedule: Q04DX003 (ip), vehicle: saline
[11] = dose: 100.0 mg/kg/injection, schedule: Q01DX001 (ip), vehicle: carboxymethylcellulose (CMC)
[12] = dose: 200.0 mg/kg/injection, schedule: Q01DX001 (ip), vehicle: carboxymethylcellulose (CMC)
[13] = dose: 400.0 mg/kg/injection, schedule: Q01DX001 (ip), vehicle: carboxymethylcellulose (CMC)
[14] = dose: 50.0 mg/kg/injection, schedule: Q01DX001 (ip), vehicle: carboxymethylcellulose (CMC)
[15] = dose: 15.0 mg/kg/injection, schedule: Q01DX Z (ip), vehicle: methylcellulose (MC)
[16] = dose: 50.0 mg/kg/injection, schedule: Q01DX009 (ip), vehicle: saline with Tween-80
[17] = dose: 100.0 mg/kg/injection, schedule: Q01DX009 (ip), vehicle: saline with Tween-80
[18] = dose: 200.0 mg/kg/injection, schedule: Q01DX009 (ip), vehicle: saline with Tween-80
[19] = dose: 200.0 mg/kg/injection, schedule: Q01DX009 (ip), vehicle: saline
[20] = dose: 100.0 mg/kg/injection, schedule: Q04DX003 (ip), vehicle: saline with Tween-80
[21] = dose: 200.0 mg/kg/injection, schedule: Q04DX003 (ip), vehicle: saline with Tween-80
[22] = dose: 400.0 mg/kg/injection, schedule: Q04DX003 (ip), vehicle: saline with Tween-80
[23] = dose: 100.0 mg/kg/injection, schedule: Q04DX003 (ip), vehicle: Klucel (hydroxypropylcellulose) (HPC)
[24] = dose: 200.0 mg/kg/injection, schedule: Q04DX003 (ip), vehicle: Klucel (hydroxypropylcellulose) (HPC)

Measured: T/C

CCOC(=O)CNc1cccc(C(F)(F)F)c1
inactive: [1] 98 % of control | dose: 100.0 mg/kg/injection, schedule: Q04DX002 (ip), vehicle: Klucel (hydroxypropylcellulose) (HPC) 100 % of control and 105 % of control | [2] 93 % of control | dose: 200.0 mg/kg/injection, schedule: Q04DX002 (ip), vehicle: Klucel (hydroxypropylcellulose) (HPC) 109 % of control and 114 % of control | dose: 400.0 mg/kg/injection, schedule: Q04DX002 (ip), vehicle: Klucel (hydroxypropylcellulose) (HPC) 98 % of control

CC(O)C(O)C(=O)O (stereo not given)
inactive: dose: 25.0 mg/kg/injection, schedule: Q01DX009 (ip), vehicle: saline 95 % of control | [3] 90 % of control | [4] 96 % of control | [5] 95 % of control | [6] 108 % of control | [7] 102 % of control | [8] 101 % of control | [9] 96 % of control | [10] 94 % of control

C#CCONC(=O)c1ccc(OC)cc1
inactive: dose: 25.0 mg/kg/injection, schedule: Q01DX009 (ip), vehicle: carboxymethylcellulose (CMC) 98 % of control | dose: 50.0 mg/kg/injection, schedule: Q01DX009 (ip), vehicle: carboxymethylcellulose (CMC) 98 % of control | [1] 96 % of control

CCc1ccc(N=Nc2ccccc2)cc1
inactive: [11] 105 % of control | [12] 96 % of control | [13] 105 % of control

CC(=O)Nc1ccc(NC(=O)Nc2ccc(Cl)cc2)cc1
inactive: dose: 25.0 mg/kg/injection, schedule: Q01DX001 (ip), vehicle: carboxymethylcellulose (CMC) 92 % of control and 90 % of control | [14] 93 % of control and 97 % of control | [11] 95 % of control and 101 % of control and 87 % of control | [1] 93 % of control and 94 % of control | dose: 100.0 mg/kg/injection, schedule: Q04DX003 (ip), vehicle: carboxymethylcellulose (CMC) 87 % of control and 88 % of control | [12] 94 % of control | [2] 92 % of control and 94 % of control | dose: 200.0 mg/kg/injection, schedule: Q04DX003 (ip), vehicle: carboxymethylcellulose (CMC) 92 % of control and 90 % of control | [13] 95 % of control | dose: 400.0 mg/kg/injection, schedule: Q01DX009 (ip), vehicle: carboxymethylcellulose (CMC) 104 % of control and 122 % of control | dose: 400.0 mg/kg/injection, schedule: Q04DX003 (ip), vehicle: carboxymethylcellulose (CMC) 98 % of control and 87 % of control

c1ccc2c(SCCC3CCCCC3)nnnc2c1
inactive: dose: 100.0 mg/kg/injection, schedule: Q04DX003 (ip), vehicle: acetone 89 % of control | dose: 200.0 mg/kg/injection, schedule: Q04DX003 (ip), vehicle: acetone 98 % of control | dose: 400.0 mg/kg/injection, schedule: Q04DX003 (ip), vehicle: acetone 93 % of control

COc1cc(C(=O)Nc2ccc(NC3=NCCN3)cc2)cc(C(=O)Nc2ccc(NC3=NCCN3)cc2)c1
inactive: dose: 1.9 mg/kg/injection, schedule: Q01DX Z (ip), vehicle: methylcellulose (MC) 104 % of control | dose: 3.8 mg/kg/injection, schedule: Q01DX Z (ip), vehicle: methylcellulose (MC) 99 % of control | dose: 7.5 mg/kg/injection, schedule: Q01DX Z (ip), vehicle: methylcellulose (MC) 113 % of control | [15] 118 % of control

CC1OC2CCCCC2O1 (stereo not given)
inactive: [16] 97 % of control | [17] 97 % of control | [18] 94 % of control

CCC(C)(O)C#CC(C)(O)CC (stereo not given)
inactive: [4] 100 % of control | [5] 101 % of control | [6] 105 % of control | [7] 106 % of control | [19] 100 % of control | [8] 105 % of control | [9] 102 % of control | [10] 100 % of control

O=C(Nc1ccccc1)C1=C(Nc2ccccc2)CSC1
inactive: dose: 25.0 mg/kg/injection, schedule: Q01DX009 (ip), vehicle: saline with Tween-80 109 % of control | [16] 100 % of control | [17] 94 % of control | [18] 98 % of control | dose: 400.0 mg/kg/injection, schedule: Q01DX009 (ip), vehicle: saline with Tween-80 89 % of control

NC(=O)C1C2C=CC(CC2)C1C(N)=O (stereo not given)
inactive: [20] 91 % of control | [21] 96 % of control | [22] 91 % of control

Nc1nc(C=O)c(Cc2ccc(Br)cc2)c(=O)[nH]1
inactive: [17] 118 % of control | [20] 100 % of control | [21] 105 % of control | [22] 102 % of control

N#CCCN(CCCN1CCOCC1)C(=S)Nc1ccc(Cl)cc1
inactive: dose: 100.0 mg/kg/injection, schedule: Q04DX002 (ip), vehicle: saline with Tween-80 94 % of control | dose: 200.0 mg/kg/injection, schedule: Q04DX002 (ip), vehicle: saline with Tween-80 90 % of control | dose: 400.0 mg/kg/injection, schedule: Q04DX002 (ip), vehicle: saline with Tween-80 101 % of control

Cc1cc(Br)nc2ccccc12
inactive: [4] 92 % of control | [7] 89 % of control | [9] 97 % of control

O=C(CC(c1ccccc1)C(C(CC(=O)c1ccccc1)c1ccccc1)[N+](=O)[O-])c1ccccc1 (stereo not given)
inactive: [11] 92 % of control | [23] 87 % of control | [12] 95 % of control | [24] 89 % of control | [13] 92 % of control | dose: 400.0 mg/kg/injection, schedule: Q04DX003 (ip), vehicle: Klucel (hydroxypropylcellulose) (HPC) 86 % of control

N/C(=N\N=C\c1cccc2ccccc12)N/N=C/c1cccc2ccccc12
inactive: [15] 101 % of control | dose: 30.0 mg/kg/injection, schedule: Q01DX Z (ip), vehicle: methylcellulose (MC) 89 % of control | dose: 60.0 mg/kg/injection, schedule: Q01DX Z (ip), vehicle: methylcellulose (MC) 102 % of control | dose: 60.0 mg/kg/injection, schedule: Q01DX Z (oral), vehicle: methylcellulose (MC) 87 % of control | dose: 120.0 mg/kg/injection, schedule: Q01DX Z (ip), vehicle: methylcellulose (MC) 97 % of control | dose: 120.0 mg/kg/injection, schedule: Q01DX Z (oral), vehicle: methylcellulose (MC) 110 % of control | dose: 180.0 mg/kg/injection, schedule: Q01DX Z (oral), vehicle: methylcellulose (MC) 101 % of control | dose: 240.0 mg/kg/injection, schedule: Q01DX Z (ip), vehicle: methylcellulose (MC) 97 % of control | dose: 240.0 mg/kg/injection, schedule: Q01DX Z (oral), vehicle: methylcellulose (MC) 102 % of control | dose: 360.0 mg/kg/injection, schedule: Q01DX Z (ip), vehicle: methylcellulose (MC) 91 % of control | dose: 360.0 mg/kg/injection, schedule: Q01DX Z (oral), vehicle: methylcellulose (MC) 96 % of control | dose: 480.0 mg/kg/injection, schedule: Q01DX Z (oral), vehicle: methylcellulose (MC) 93 % of control | dose: 540.0 mg/kg/injection, schedule: Q01DX Z (oral), vehicle: methylcellulose (MC) 96 % of control

CCOC(=O)c1ccccc1N(O)C(=O)Nc1ccc(C)cc1
inactive: [20] 97 % of control | [21] 105 % of control | [22] 109 % of control

C[N+](C)(CCl)C1CCCCC1
inactive: dose: 75.0 mg/kg/injection, schedule: Q01DX001 (ip), vehicle: saline 107 % of control

O=S(=O)(O)CCO
inactive: [3] 99 % of control | [5] 95 % of control | [6] 97 % of control | [19] 99 % of control | [8] 101 % of control | [10] 101 % of control

O=P(O)(O)Cc1cccc2ccccc12
inactive: [23] 92 % of control | [20] 96 % of control | [24] 89 % of control | [21] 96 % of control | [22] 96 % of control

NC1=NC(=O)NC1(c1ccccc1)c1ccccc1
inactive: [14] 94 % of control | [11] 100 % of control | [12] 89 % of control | [13] 116 % of control

O=S(=O)(ON=C1C=CC(=NOS(=O)(=O)c2ccccc2)C=C1)c1ccccc1
inactive: dose: 50.0 mg/kg/injection, schedule: Q01DX001 (ip), vehicle: saline 96 % of control | [4] 93 % of control | [7] 93 % of control | [9] 93 % of control

O=S(=O)(c1ccccc1)C(CCCC(C(O)(c1ccccc1)c1ccccc1)S(=O)(=O)c1ccccc1)C(O)(c1ccccc1)c1ccccc1 (stereo not given)
inactive: [20] 98 % of control | [21] 100 % of control | [22] 105 % of control

O=c1cc(Nc2ccccc2Cl)[nH]c(=O)[nH]1
inactive: [20] 104 % of control | [21] 98 % of control | [22] 95 % of control
